pEC50, pKi: −log10 of the molar value.
target: T1, α2AAR (Homo sapiens, UniProt P08913); experiment: α2AAR binding assay ([3H]-RX 821002 radioligand); settings: [3H]-RX 821002 0.5 nM, HEK293 membranes; read-out: α2A affinity (Ki)
T1 construct: host or cells: HEK293 (membranes)
T1 sequence (P08913 1-465): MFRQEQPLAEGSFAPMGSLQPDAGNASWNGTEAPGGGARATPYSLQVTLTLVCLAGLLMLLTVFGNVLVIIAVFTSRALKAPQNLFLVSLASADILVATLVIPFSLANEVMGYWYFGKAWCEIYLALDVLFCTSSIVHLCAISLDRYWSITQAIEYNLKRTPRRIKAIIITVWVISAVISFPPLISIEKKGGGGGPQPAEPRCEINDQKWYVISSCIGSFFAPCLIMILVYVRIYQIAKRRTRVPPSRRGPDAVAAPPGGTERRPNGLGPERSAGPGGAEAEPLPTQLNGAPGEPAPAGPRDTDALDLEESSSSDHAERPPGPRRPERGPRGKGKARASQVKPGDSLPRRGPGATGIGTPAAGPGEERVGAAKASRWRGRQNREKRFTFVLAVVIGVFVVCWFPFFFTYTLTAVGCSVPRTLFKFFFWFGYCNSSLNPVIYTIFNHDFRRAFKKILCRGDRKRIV

| Compound | pKi |
| --- | --- |
| Cc1cccc(C(c2c[nH]cn2)c2cccc(OCCNS(C)(=O)=O)c2F)c1C (stereo not drawn) [compound 55] | 7.30 to 8.00 |
| Cc1cccc(C(c2c[nH]cn2)c2cccc(C(N)=O)n2)c1C (stereo not drawn) [compound 56] | 7.30 to 8.00 |
| Cc1cccc(C(c2cccc(NC(=O)OC3CCOC3)c2)c2c[nH]cn2)c1C (stereo not drawn) [compound 64] | 7.30 to 8.00 |
| CONC(=O)Nc1cccc(C(c2c[nH]cn2)c2cccc(C)c2C)c1 (stereo not drawn) [compound 72] | 7.30 to 8.00 |
| Cc1cccc(C(c2cccc(NS(=O)(=O)CCC#N)c2)c2c[nH]cn2)c1C (stereo not drawn) [compound 74] | 7.30 to 8.00 |
| Cc1cccc(C(c2cccc(NC(=O)CN3CCOCC3)c2)c2c[nH]cn2)c1C (stereo not drawn) [compound 81] | > 8.00 |
| Cc1cccc(C(c2cccc(C(=O)NOCC3CCOC3)c2)c2c[nH]cn2)c1C (stereo not drawn) [compound 95] | > 8.00 |
| Cc1cccc(C(c2cccc(C(=O)NCC3CCC(O)CC3)c2)c2c[nH]cn2)c1C (stereo not drawn) [compound 99] | 7.30 to 8.00 |
| Cc1cccc(C(c2cccc(NC(=O)Cc3ccncc3)c2)c2c[nH]cn2)c1C (stereo not drawn) [compound 103] | 7.30 to 8.00 |
| Cc1cccc(C(c2cccc(NC(=O)NC3CC3)c2)c2c[nH]cn2)c1C (stereo not drawn) [compound 109] | 7.30 to 8.00 |

Second part, the molecule after the results:

| pKi | Compound |
| --- | --- |
| 7.30 to 8.00 | CCS(=O)(=O)Nc1cccc(C(c2c[nH]cn2)c2cccc(C)c2C)c1 (stereo not drawn) [compound 67] |
| 7.30 to 8.00 | Cc1cccc(C(c2cccc(NC(=O)CC3CCOC3)c2)c2c[nH]cn2)c1C (stereo not drawn) [compound 73] |
| > 8.00 | Cc1cccc(C(c2cccc(NC(=O)CC3CCOCC3)c2)c2c[nH]cn2)c1C (stereo not drawn) [compound 80] |
| 7.30 to 8.00 | Cc1cccc(C(c2cccc(NC(=O)CCC3CCOCC3)c2)c2c[nH]cn2)c1C (stereo not drawn) [compound 101] |
| > 8.00 | Cc1cccc(C(c2cccc(S(=O)(=O)NCC3CCOCC3)c2)c2c[nH]cn2)c1C (stereo not drawn) [compound 105] |
| > 8.00 | Cc1cccc(C(Cc2cccc(NC(=O)CC3CCOCC3)c2)c2c[nH]cn2)c1C (stereo not drawn) [compound 108] |
| 7.30 to 8.00 | Cc1cccc(C(c2cccc(NC(=O)NC3CCOCC3)c2)c2c[nH]cn2)c1C (stereo not drawn) [compound 111] |
| > 8.00 | Cc1cccc(C(Cc2cccc(NS(=O)(=O)CC3CCOCC3)c2)c2c[nH]cn2)c1C (stereo not drawn) [compound 112] |

target: T2, α2AAR (α2A-adrenergic receptor) (Homo sapiens, UniProt P08913); experiment: α2AAR FLIPR assay (agonist activity); assay type: cell-based; settings: FLIPR, α2AAR cell line hosted in HEK293 cells; read-out: α2A agonist activity (EC50)
T2 construct: expressed in transfected cells; host or cells: HEK293
T2 sequence (P08913 1-465): T1 sequence (P08913 1-465)
Procedure, shortened: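 HEK293 cells expressing α2AAR loaded with Fluo-4 Direct plus probenecid for 50 min at 37° C and 10 min at room temperature, then treated with serially diluted compounds.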

| Compound | pEC50 |
| --- | --- |
| Cc1cccc(C(c2c[nH]cn2)c2cccc(OCCNS(C)(=O)=O)c2F)c1C (stereo not drawn) [compound 55] | 7.30 to 8.00 |
| Cc1cccc(C(c2c[nH]cn2)c2cccc(C(N)=O)n2)c1C (stereo not drawn) [compound 56] | 7.30 to 8.00 |
| Cc1cccc(C(c2cccc(NC(=O)OC3CCOC3)c2)c2c[nH]cn2)c1C (stereo not drawn) [compound 64] | 7.30 to 8.00 |
| CONC(=O)Nc1cccc(C(c2c[nH]cn2)c2cccc(C)c2C)c1 (stereo not drawn) [compound 72] | 7.30 to 8.00 |
| Cc1cccc(C(c2cccc(NS(=O)(=O)CCC#N)c2)c2c[nH]cn2)c1C (stereo not drawn) [compound 74] | 6.60 to 7.30 |
| Cc1cccc(C(c2cccc(NC(=O)CN3CCOCC3)c2)c2c[nH]cn2)c1C (stereo not drawn) [compound 81] | 7.30 to 8.00 |
| Cc1cccc(C(c2cccc(C(=O)NOCC3CCOC3)c2)c2c[nH]cn2)c1C (stereo not drawn) [compound 95] | 7.30 to 8.00 |
| Cc1cccc(C(c2cccc(C(=O)NCC3CCC(O)CC3)c2)c2c[nH]cn2)c1C (stereo not drawn) [compound 99] | 7.30 to 8.00 |
| Cc1cccc(C(c2cccc(NC(=O)Cc3ccncc3)c2)c2c[nH]cn2)c1C (stereo not drawn) [compound 103] | 7.30 to 8.00 |
| Cc1cccc(C(c2cccc(NC(=O)NC3CC3)c2)c2c[nH]cn2)c1C (stereo not drawn) [compound 109] | 7.30 to 8.00 |

Continued, values first:

| pEC50 | Compound |
| --- | --- |
| 7.30 to 8.00 | CCS(=O)(=O)Nc1cccc(C(c2c[nH]cn2)c2cccc(C)c2C)c1 (stereo not drawn) [compound 67] |
| 7.30 to 8.00 | Cc1cccc(C(c2cccc(NC(=O)CC3CCOC3)c2)c2c[nH]cn2)c1C (stereo not drawn) [compound 73] |
| 7.30 to 8.00 | Cc1cccc(C(c2cccc(NC(=O)CC3CCOCC3)c2)c2c[nH]cn2)c1C (stereo not drawn) [compound 80] |
| 7.30 to 8.00 | Cc1cccc(C(c2cccc(NC(=O)CCC3CCOCC3)c2)c2c[nH]cn2)c1C (stereo not drawn) [compound 101] |
| 7.30 to 8.00 | Cc1cccc(C(c2cccc(S(=O)(=O)NCC3CCOCC3)c2)c2c[nH]cn2)c1C (stereo not drawn) [compound 105] |
| 7.30 to 8.00 | Cc1cccc(C(Cc2cccc(NC(=O)CC3CCOCC3)c2)c2c[nH]cn2)c1C (stereo not drawn) [compound 108] |
| 7.30 to 8.00 | Cc1cccc(C(c2cccc(NC(=O)NC3CCOCC3)c2)c2c[nH]cn2)c1C (stereo not drawn) [compound 111] |
| 7.30 to 8.00 | Cc1cccc(C(Cc2cccc(NS(=O)(=O)CC3CCOCC3)c2)c2c[nH]cn2)c1C (stereo not drawn) [compound 112] |

target: P-glycoprotein (P-gp, MDR1) (Homo sapiens, UniProt P08183); experiment: in vitro; settings: dog, MDCK-MDR1, pH 7.4
Sequence (P08183 whole entry): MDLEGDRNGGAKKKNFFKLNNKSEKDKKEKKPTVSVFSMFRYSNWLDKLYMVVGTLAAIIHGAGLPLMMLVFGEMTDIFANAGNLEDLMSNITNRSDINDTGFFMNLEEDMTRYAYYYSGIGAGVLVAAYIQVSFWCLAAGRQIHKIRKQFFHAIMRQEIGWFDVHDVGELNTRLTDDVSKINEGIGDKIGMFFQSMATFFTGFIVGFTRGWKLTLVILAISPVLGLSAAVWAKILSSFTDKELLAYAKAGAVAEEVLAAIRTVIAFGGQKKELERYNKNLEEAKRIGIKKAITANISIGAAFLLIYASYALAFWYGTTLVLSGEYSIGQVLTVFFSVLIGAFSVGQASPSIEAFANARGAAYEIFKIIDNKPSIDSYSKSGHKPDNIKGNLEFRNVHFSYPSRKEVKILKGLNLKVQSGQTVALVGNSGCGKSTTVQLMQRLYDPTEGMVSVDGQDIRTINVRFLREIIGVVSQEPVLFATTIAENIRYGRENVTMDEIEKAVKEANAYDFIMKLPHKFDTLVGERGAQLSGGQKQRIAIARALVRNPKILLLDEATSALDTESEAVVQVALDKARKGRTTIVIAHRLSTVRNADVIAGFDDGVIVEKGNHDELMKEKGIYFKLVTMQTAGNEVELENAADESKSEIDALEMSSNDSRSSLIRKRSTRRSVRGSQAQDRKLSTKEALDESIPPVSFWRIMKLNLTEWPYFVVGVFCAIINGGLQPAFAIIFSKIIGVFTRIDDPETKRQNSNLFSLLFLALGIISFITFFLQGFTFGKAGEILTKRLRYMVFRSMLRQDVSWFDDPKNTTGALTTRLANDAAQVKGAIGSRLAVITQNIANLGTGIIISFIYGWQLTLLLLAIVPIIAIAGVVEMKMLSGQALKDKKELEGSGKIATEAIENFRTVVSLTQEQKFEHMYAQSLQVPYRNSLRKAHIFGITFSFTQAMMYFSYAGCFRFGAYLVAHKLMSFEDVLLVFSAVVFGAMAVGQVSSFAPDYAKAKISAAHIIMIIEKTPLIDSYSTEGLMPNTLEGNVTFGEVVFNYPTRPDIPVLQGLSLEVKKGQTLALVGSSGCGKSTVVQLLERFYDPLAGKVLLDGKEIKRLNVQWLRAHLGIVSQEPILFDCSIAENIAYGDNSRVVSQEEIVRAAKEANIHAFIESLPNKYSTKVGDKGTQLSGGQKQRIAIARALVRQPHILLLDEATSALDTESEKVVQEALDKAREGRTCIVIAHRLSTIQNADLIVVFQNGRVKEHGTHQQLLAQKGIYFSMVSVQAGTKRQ
Description: MDR1-MDCK II cells (obtained from Piet Borst at the Netherlands Cancer Institute) were seeded onto Polycarbonate membranes (PC) in 96-well insert systems at 3.33×10^5 cells/mL until to 4-7 days for confluent cell monolayer formation.
Selected α2AR agonist from table 3s were diluted with the transport buffer (HBSS with 10.0 mM Hepes, pH7.4) from DMSO stock solution to a concentration of 2 μM (DMSO<1%) and applied to the apical or basolateral side of the cell monolayer. […] Permeation of the test compounds from A to B direction and/or B to A direction was determined in duplicate. Digoxin was tested at 10.0 μM from A to B direction and B to A direction in duplicate. The plate was incubated for 2.5 hours in CO2 incubator at 37.0±1.0° C., with 5.0% CO2 at saturated humidity without shaking. In addition, the efflux ratio of each compound was also determined. Test and reference compounds were quantified by LC/MS/MS analysis based on the peak area ratio of analyte/IS.
After transport assay, lucifer yellow rejection assay was applied to determine the cell monolayer integrity. Buffers were removed from both apical and basolateral chambers, followed by the addition of 75 μL of 100 μM lucifer yellow in transport buffer and 250 μL transport buffer in apical and basolateral chambers, respectively. The plate was incubated for 30 minutes at 37.0° C. with 5.0% CO2 and 95.0% relative humidity without shaking. After 30 minutes incubation, 20 μL of lucifer yellow samples were taken from the apical sides, followed by the addition of 60 μL of transport Buffer. And then 80 μL of lucifer yellow samples were taken from the basolateral sides. The relative fluorescence unit (RFU) of lucifer yellow was measured at 425/528 nm (excitation/emission) with an Envision plate reader.
The apparent permeability coefficient Papp (cm/s) was calculated using the equation: […]
wherein dCr/dt is the cumulative concentration of compound in the receiver chamber as a function of time (μM/s); Vr is the solution volume in the receiver chamber (0.075 mL on the apical side, 0.25 mL on the basolateral side); A is the surface area for the transport, i.e. 0.143 cm2 for the area of the monolayer; and C0 is the initial concentration in the donor chamber (μM).
The efflux ratio was calculated using the equation: […]

| Compound | efflux ratio at 2.5 h, 2 μM |
| --- | --- |
| Cc1cccc(C(c2c[nH]cn2)c2cccc(OCCNS(C)(=O)=O)c2F)c1C (stereo not drawn) [compound 55] | 26.4 |
| Cc1cccc(C(c2c[nH]cn2)c2cccc(C(N)=O)n2)c1C (stereo not drawn) [compound 56] | 11.5 |
| Cc1cccc(C(c2cccc(NC(=O)OC3CCOC3)c2)c2c[nH]cn2)c1C (stereo not drawn) [compound 64] | 24.3 |
| CONC(=O)Nc1cccc(C(c2c[nH]cn2)c2cccc(C)c2C)c1 (stereo not drawn) [compound 72] | 32.9 |
| Cc1cccc(C(c2cccc(NS(=O)(=O)CCC#N)c2)c2c[nH]cn2)c1C (stereo not drawn) [compound 74] | 93.5 |
| Cc1cccc(C(c2cccc(NC(=O)CN3CCOCC3)c2)c2c[nH]cn2)c1C (stereo not drawn) [compound 81] | 62.5 |
| Cc1cccc(C(c2cccc(C(=O)NOCC3CCOC3)c2)c2c[nH]cn2)c1C (stereo not drawn) [compound 95] | 102 |
| Cc1cccc(C(c2cccc(C(=O)NCC3CCC(O)CC3)c2)c2c[nH]cn2)c1C (stereo not drawn) [compound 99] | 141 |
| Cc1cccc(C(c2cccc(NC(=O)Cc3ccncc3)c2)c2c[nH]cn2)c1C (stereo not drawn) [compound 103] | 149 |
| Cc1cccc(C(c2cccc(NC(=O)NC3CC3)c2)c2c[nH]cn2)c1C (stereo not drawn) [compound 109] | 94.8 |

Continued, values first:

| efflux ratio at 2.5 h, 2 μM | Compound |
| --- | --- |
| 29 | CCS(=O)(=O)Nc1cccc(C(c2c[nH]cn2)c2cccc(C)c2C)c1 (stereo not drawn) [compound 67] |
| 96.1 | Cc1cccc(C(c2cccc(NC(=O)CC3CCOC3)c2)c2c[nH]cn2)c1C (stereo not drawn) [compound 73] |
| 112 | Cc1cccc(C(c2cccc(NC(=O)CC3CCOCC3)c2)c2c[nH]cn2)c1C (stereo not drawn) [compound 80] |
| 104 | Cc1cccc(C(c2cccc(NC(=O)CCC3CCOCC3)c2)c2c[nH]cn2)c1C (stereo not drawn) [compound 101] |
| 65.8 | Cc1cccc(C(c2cccc(S(=O)(=O)NCC3CCOCC3)c2)c2c[nH]cn2)c1C (stereo not drawn) [compound 105] |
| 72.2 | Cc1cccc(C(Cc2cccc(NC(=O)CC3CCOCC3)c2)c2c[nH]cn2)c1C (stereo not drawn) [compound 108] |
| 173 | Cc1cccc(C(c2cccc(NC(=O)NC3CCOCC3)c2)c2c[nH]cn2)c1C (stereo not drawn) [compound 111] |
| 58.4 | Cc1cccc(C(Cc2cccc(NS(=O)(=O)CC3CCOCC3)c2)c2c[nH]cn2)c1C (stereo not drawn) [compound 112] |

From US20240374573A1, “IMIDAZOLE CONTAINING COMPOUNDS, DERIVATIVES THEREFORE, AND USES THEREOF” (AglaeaPharma Inc., priority 2023, published 2024)
